Source: patent US20140242093A1, “METHODS AND COMPOSITIONS FOR MODULATING THE INNATE IMMUNE RESPONSE AND/OR MYOGENESIS IN A MAMMALIAN SUBJECT” (FRED HUTCHINSON CANCER RESEARCH CENTER, priority 2011, published 2014)

Tested on: Human myoblasts
Assay: Expression array of the innate immune response to lentiviral infection versus uninfected cells
Type: cell-based
Procedure: RNA was harvested from the lenti-viral infected cells and uninfected control cells at 24 hours after infection.

## DUX4-fl: full-length DUX4 protein (SEQ ID NO:110), expressed from lentiviral or pCS2 vectors or in vitro translated
Gene IFITM3 NM_021034.2, vs lenti-GFP, 24 hours after infection
  IFITM3 expression ratio vs GFP (.fc): −1.95 log2 fold change
Gene IFITM3 NM_021034.2, vs uninfected, 24 hours after infection
  IFITM3 expression ratio vs NoLenti (.fc): −0.01 log2 fold change
Gene IL1R1 NM_000877.2, vs lenti-GFP, 24 hours after infection
  IL1R1 expression ratio vs GFP (.fc): −1.34 log2 fold change
Gene IL1R1 NM_000877.2, vs uninfected, 24 hours after infection
  IL1R1 expression ratio vs NoLenti (.fc): 0.09 log2 fold change
Gene IL7R NM_002185.2, vs lenti-GFP, 24 hours after infection
  IL7R expression ratio vs GFP (.fc): −2.26 log2 fold change
Gene IL7R NM_002185.2, vs uninfected, 24 hours after infection
  IL7R expression ratio vs NoLenti (.fc): −0.49 log2 fold change
Gene IL8 NM_000584.2, vs lenti-GFP, 24 hours after infection
  IL8 expression ratio vs GFP (.fc): −3.88 log2 fold change
Gene IL8 NM_000584.2, vs uninfected, 24 hours after infection
  IL8 expression ratio vs NoLenti (.fc): −0.13 log2 fold change
Gene IL18BP NM_173042.2, vs lenti-GFP, 24 hours after infection
  IL18BP expression ratio vs GFP (.fc): −1.25 log2 fold change
Gene IL18BP NM_173042.2, vs uninfected, 24 hours after infection
  IL18BP expression ratio vs NoLenti (.fc): 0.85 log2 fold change
Gene IRF7 NM_004029.2, vs lenti-GFP, 24 hours after infection
  IRF7 expression ratio vs GFP (.fc): −1.96 log2 fold change
Gene IRF7 NM_004029.2, vs uninfected, 24 hours after infection
  IRF7 expression ratio vs NoLenti (.fc): 1.02 log2 fold change
Gene IRF9 NM_006084.4, vs lenti-GFP, 24 hours after infection
  IRF9 expression ratio vs GFP (.fc): −2.25 log2 fold change
Gene IRF9 NM_006084.4, vs uninfected, 24 hours after infection
  IRF9 expression ratio vs NoLenti (.fc): 0.20 log2 fold change
Gene MX1 NM_002462.2, vs lenti-GFP, 24 hours after infection
  MX1 expression ratio vs GFP (.fc): −5.67 log2 fold change
Gene MX1 NM_002462.2, vs uninfected, 24 hours after infection
  MX1 expression ratio vs NoLenti (.fc): 1.58 log2 fold change
Gene NFIL3 NM_005384.2, vs lenti-GFP, 24 hours after infection
  NFIL3 expression ratio vs GFP (.fc): −1.82 log2 fold change
Gene NFIL3 NM_005384.2, vs uninfected, 24 hours after infection
  NFIL3 expression ratio vs NoLenti (.fc): 0.07 log2 fold change
Gene NFKBIA NM_020529.1, vs lenti-GFP, 24 hours after infection
  NFKBIA expression ratio vs GFP (.fc): −3.00 log2 fold change
Gene NFKBIA NM_020529.1, vs uninfected, 24 hours after infection
  NFKBIA expression ratio vs NoLenti (.fc): −0.83 log2 fold change
Gene NFKBIZ NM_001005474.1, vs lenti-GFP, 24 hours after infection
  NFKBIZ expression ratio vs GFP (.fc): −1.57 log2 fold change
Gene NFKBIZ NM_001005474.1, vs uninfected, 24 hours after infection
  NFKBIZ expression ratio vs NoLenti (.fc): 0.30 log2 fold change
Gene STAT1 NM_007315.2, vs lenti-GFP, 24 hours after infection
  STAT1 expression ratio vs GFP (.fc): −2.92 log2 fold change
Gene STAT1 NM_007315.2, vs uninfected, 24 hours after infection
  STAT1 expression ratio vs NoLenti (.fc): 1.08 log2 fold change
Gene STAT2 NM_005419.2, vs lenti-GFP, 24 hours after infection
  STAT2 expression ratio vs GFP (.fc): −2.69 log2 fold change
Gene STAT2 NM_005419.2, vs uninfected, 24 hours after infection
  STAT2 expression ratio vs NoLenti (.fc): −0.77 log2 fold change
Gene TLR3 NM_003265.2, vs lenti-GFP, 24 hours after infection
  TLR3 expression ratio vs GFP (.fc): −1.27 log2 fold change
Gene TLR3 NM_003265.2, vs uninfected, 24 hours after infection
  TLR3 expression ratio vs NoLenti (.fc): −0.06 log2 fold change
Gene TNFAIP2 NM_006291.2, vs lenti-GFP, 24 hours after infection
  TNFAIP2 expression ratio vs GFP (.fc): −1.59 log2 fold change
Gene TNFAIP2 NM_006291.2, vs uninfected, 24 hours after infection
  TNFAIP2 expression ratio vs NoLenti (.fc): −0.42 log2 fold change
Gene TNFAIP3 NM_006290.2, vs lenti-GFP, 24 hours after infection
  TNFAIP3 expression ratio vs GFP (.fc): −2.90 log2 fold change
Gene TNFAIP3 NM_006290.2, vs uninfected, 24 hours after infection
  TNFAIP3 expression ratio vs NoLenti (.fc): −0.38 log2 fold change
Gene TNFAIP6 NM_007115.2, vs lenti-GFP, 24 hours after infection
  TNFAIP6 expression ratio vs GFP (.fc): −2.21 log2 fold change
Gene TNFAIP6 NM_007115.2, vs uninfected, 24 hours after infection
  TNFAIP6 expression ratio vs NoLenti (.fc): 1.63 log2 fold change
Gene TNFRSF6B NM_032945.2, vs lenti-GFP, 24 hours after infection
  TNFRSF6B expression ratio vs GFP (.fc): −1.68 log2 fold change
Gene TNFRSF6B NM_032945.2, vs uninfected, 24 hours after infection
  TNFRSF6B expression ratio vs NoLenti (.fc): −0.29 log2 fold change
Gene TNFRSF10A NM_003844.2, vs lenti-GFP, 24 hours after infection
  TNFRSF10A expression ratio vs GFP (.fc): −1.13 log2 fold change
Gene TNFRSF10A NM_003844.2, vs uninfected, 24 hours after infection
  TNFRSF10A expression ratio vs NoLenti (.fc): 0.07 log2 fold change
Gene TNFRSF14 NM_003820.2, vs lenti-GFP, 24 hours after infection
  TNFRSF14 expression ratio vs GFP (.fc): −2.72 log2 fold change
Gene TNFRSF14 NM_003820.2, vs uninfected, 24 hours after infection
  TNFRSF14 expression ratio vs NoLenti (.fc): −1.36 log2 fold change
Gene TNFSF10 NM_003810.2, vs lenti-GFP, 24 hours after infection
  TNFSF10 expression ratio vs GFP (.fc): −1.13 log2 fold change
Gene TNFSF10 NM_003810.2, vs uninfected, 24 hours after infection
  TNFSF10 expression ratio vs NoLenti (.fc): 0.14 log2 fold change
Gene TNFSF13B NM_006573.3, vs lenti-GFP, 24 hours after infection
  TNFSF13B expression ratio vs GFP (.fc): −1.76 log2 fold change
Gene TNFSF13B NM_006573.3, vs uninfected, 24 hours after infection
  TNFSF13B expression ratio vs NoLenti (.fc): 0.12 log2 fold change
Out of 341
  number of lentivirus-induced genes whose induction is suppressed: 317 genes
Vs uninfected cells, 24 hours
  number of the 341 lenti-GFP induced genes induced 2-fold or more: 34 genes
